Molecular target: JAK2 (Homo sapiens (Human), UniProt O60674)
Assay: JAK2 Z-Lyte biochemical assay
Conditions: commercial JAK2 Z-Lyte assay from Invitrogen
Description: The JAK2 Z-Lyte biochemical assay was performed according to manufacturer's instructions (Life Technologies).

Sequence of JAK2 (O60674 whole entry): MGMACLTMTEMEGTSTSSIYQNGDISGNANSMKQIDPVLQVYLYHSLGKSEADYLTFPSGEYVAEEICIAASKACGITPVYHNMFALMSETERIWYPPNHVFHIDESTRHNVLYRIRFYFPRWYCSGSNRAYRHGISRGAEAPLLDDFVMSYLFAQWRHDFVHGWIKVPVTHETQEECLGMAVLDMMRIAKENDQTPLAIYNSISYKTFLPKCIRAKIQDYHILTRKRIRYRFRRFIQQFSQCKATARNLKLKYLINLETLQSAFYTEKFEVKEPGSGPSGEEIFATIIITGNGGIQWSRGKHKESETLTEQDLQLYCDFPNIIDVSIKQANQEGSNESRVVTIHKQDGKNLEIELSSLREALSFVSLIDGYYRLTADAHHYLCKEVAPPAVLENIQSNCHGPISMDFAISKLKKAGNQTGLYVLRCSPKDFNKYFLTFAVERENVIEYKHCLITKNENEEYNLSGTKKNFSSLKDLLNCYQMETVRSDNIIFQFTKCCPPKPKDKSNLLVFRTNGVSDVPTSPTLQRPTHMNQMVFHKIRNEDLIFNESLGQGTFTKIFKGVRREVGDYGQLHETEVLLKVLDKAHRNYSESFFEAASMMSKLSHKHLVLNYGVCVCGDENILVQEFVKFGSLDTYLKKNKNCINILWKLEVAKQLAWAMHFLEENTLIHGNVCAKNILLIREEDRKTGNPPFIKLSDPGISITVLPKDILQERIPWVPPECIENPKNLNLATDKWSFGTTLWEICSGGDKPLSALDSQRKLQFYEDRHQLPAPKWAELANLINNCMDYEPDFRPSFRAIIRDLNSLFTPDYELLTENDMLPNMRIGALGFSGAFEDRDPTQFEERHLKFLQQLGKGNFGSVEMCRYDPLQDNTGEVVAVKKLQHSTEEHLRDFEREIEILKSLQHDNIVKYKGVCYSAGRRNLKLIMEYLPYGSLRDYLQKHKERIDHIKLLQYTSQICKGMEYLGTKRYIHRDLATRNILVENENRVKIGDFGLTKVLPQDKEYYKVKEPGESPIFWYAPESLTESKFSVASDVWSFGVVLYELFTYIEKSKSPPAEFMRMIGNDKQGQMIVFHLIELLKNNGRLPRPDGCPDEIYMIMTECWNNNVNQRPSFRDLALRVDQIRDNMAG

Row | SMILES | IC50 [µM]
1 | Cc1ccc(C(=O)Nc2ccc(F)cc2F)cc1-c1ccc2nc(NC(=O)C3CC3)sc2n1 [Compound I-1, 3-(2-(cyclopropanecarboxamido)thiazolo[5,4-b]pyridin-5-yl)-N-(2,4-difluorophenyl)-4-methylbenzamide] | > 10
2 | CC(=O)Nc1nc2ccc(-c3cc(C(=O)Nc4ccc(F)cc4F)ccc3C)nc2s1 [Compound I-2, 3-(2-acetamidothiazolo[5,4-b]pyridin-5-yl)-N-(2,4-difluorophenyl)-4-methylbenzamide] | > 10
3 | Cc1ccc(NC(=O)Nc2ccc(F)cc2F)cc1-c1ccc2nc(NC(=O)C3CC3)sc2n1 [Compound I-3, N-(5-(5-(3-(2,4-difluorophenyl)ureido)-2-methylphenyl)thiazolo[5,4-b]pyridin-2-yl)cyclopropanecarboxamide] | > 10
4 | CCN1CCN(Cc2cc(C(=O)Nc3ccc(C)c(-c4ccc5nc(NC(=O)C6CC6)sc5c4)c3)cc(C(F)(F)F)c2)CC1 [Compound I-4] | 0.881
5 | CCN1CCN(Cc2cc(C(=O)Nc3cccc(-c4ccc5nc(NC(=O)C6CC6)sc5n4)c3)cc(C(F)(F)F)c2)CC1 [Compound I-7, N-(3-(2-(cyclopropanecarboxamido)thiazolo[5,4-b]pyridin-5-yl)phenyl)-3-((4-ethylpiperazin-1-yl)methyl)-5-(trifluoromethyl)benzamide] | 0.55
6 | CCN1CCN(Cc2cc(NC(=O)Nc3ccc(C)c(-c4ccc5nc(NC(=O)C6CC6)sc5n4)c3)cc(C(F)(F)F)c2)CC1 [Compound I-9, N-(5-(5-(3-(3-((4-ethylpiperazin-1-yl)methyl)-5-(trifluoromethyl)phenyl)ureido)-2-methylphenyl)thiazolo[5,4-b]pyridin-2-yl)cyclopropanecarboxamide] | > 10
7 | O=C(Nc1nc2ccc(-c3ccc4c(c3)N(C(=O)Nc3ccc(F)cc3F)CC4)nc2s1)C1CC1 [Compound I-10, 6-(2-(cyclopropanecarboxamido)thiazolo[5,4-b]pyridin-5-yl)-N-(2,4-difluorophenyl)indoline-1-carboxamide] | > 10
8 | CCN1CCN(Cc2cc(C(=O)N3CCc4ccc(-c5ccc6nc(NC(=O)C7CC7)sc6n5)cc43)cc(C(F)(F)F)c2)CC1 [Compound I-11, N-(5-(1-(3-((4-ethylpiperazin-1-yl)methyl)-5-(trifluoromethyl)benzoyl)indolin-6-yl)thiazolo[5,4-b]pyridin-2-yl)cyclopropanecarboxamide] | > 10
9 | CCN1CCN(Cc2cc(NC(=O)N3CCc4ccc(-c5ccc6nc(NC(=O)C7CC7)sc6n5)cc43)cc(C(F)(F)F)c2)CC1 [Compound I-12, 6-(2-(cyclopropanecarboxamido)thiazolo[5,4-b]pyridin-5-yl)-N-(3-((4-ethylpiperazin-1-yl)methyl)-5-(trifluoromethyl)phenyl)indoline-1-carboxamide] | > 10
10 | CCN1CCN(Cc2cc(C(=O)N3Cc4ccc(-c5ccc6nc(NC(=O)C7CC7)sc6n5)cc4C3)cc(C(F)(F)F)c2)CC1 [Compound I-13, N-(5-(2-(3-((4-ethylpiperazin-1-yl)methyl)-5-(trifluoromethyl)benzoyl)isoindolin-5-yl)thiazolo[5,4-b]pyridin-2-yl)cyclopropanecarboxamide] | > 10
11 | CCN1CCN(Cc2cc(NC(=O)N3Cc4ccc(-c5ccc6nc(NC(=O)C7CC7)sc6n5)cc4C3)cc(C(F)(F)F)c2)CC1 [Compound I-14, 5-(2-(cyclopropanecarboxamido)thiazolo[5,4-b]pyridin-5-yl)-N-(3-((4-ethylpiperazin-1-yl)methyl)-5-(trifluoromethyl)phenyl)isoindoline-2-carboxamide] | > 10
12 | O=C(Nc1nc2ccc(-c3ccc4c(c3)CN(C(=O)Nc3ccc(F)cc3F)C4)nc2s1)C1CC1 [Compound I-15, 5-(2-(cyclopropanecarboxamido)thiazolo[5,4-b]pyridin-5-yl)-N-(2,4-difluorophenyl)isoindoline-2-carboxamide] | > 10
13 | Cc1ccc(NC(=O)Nc2ccc(F)cc2F)cc1Oc1ccc2nc(NC(=O)C3CC3)sc2n1 [Compound I-16, N-(5-(5-(3-(2,4-difluorophenyl)ureido)-2-methylphenoxy)thiazolo[5,4-b]pyridin-2-yl)cyclopropanecarboxamide] | > 10
14 | CCN1CCN(Cc2ccc(NC(=O)Nc3ccc(C)c(Oc4ccc5nc(NC(=O)C6CC6)sc5n4)c3)cc2C(F)(F)F)CC1 [Compound I-17, N-(5-(5-(3-(4-((4-ethylpiperazin-1-yl)methyl)-3-(trifluoromethyl)phenyl)ureido)-2-methylphenoxy)thiazolo[5,4-b]pyridin-2-yl)cyclopropanecarboxamide] | > 10
15 | CCN1CCN(Cc2cc(C(=O)Nc3ccc(C)c(Oc4ccc5nc(NC(=O)C6CC6)sc5n4)c3)cc(C(F)(F)F)c2)CC1 [Compound I-19, N-(3-((2-(cyclopropanecarboxamido)thiazolo[5,4-b]pyridin-5-yl)oxy)-4-methylphenyl)-3-((4-ethylpiperazin-1-yl)methyl)-5-(trifluoromethyl)benzamide] | 0.824
16 | CCN1CCN(Cc2cc(NC(=O)c3ccc(C)c(Oc4ccc5nc(NC(=O)C6CC6)sc5n4)c3)cc(C(F)(F)F)c2)CC1 [Compound I-20, 3-((2-(cyclopropanecarboxamido)thiazolo[5,4-b]pyridin-5-yl)oxy)-N-(3-((4-ethylpiperazin-1-yl)methyl)-5-(trifluoromethyl)phenyl)-4-methylbenzamide] | 2.83
17 | CCN1CCN(Cc2ccc(NC(=O)N3Cc4ccc(Oc5ccc6nc(NC(=O)C7CC7)sc6n5)cc4C3)cc2C(F)(F)F)CC1 [Compound I-21, 5-((2-(cyclopropanecarboxamido)thiazolo[5,4-b]pyridin-5-yl)oxy)-N-(4-((4-ethylpiperazin-1-yl)methyl)-3-(trifluoromethyl)phenyl)isoindoline-2-carboxamide] | > 10
18 | CCN1CCN(Cc2cc(NC(=O)N3Cc4ccc(Oc5ccc6nc(NC(=O)C7CC7)sc6n5)cc4C3)cc(C(F)(F)F)c2)CC1 [Compound I-22, 5-((2-(cyclopropanecarboxamido)thiazolo[5,4-b]pyridin-5-yl)oxy)-N-(3-((4-ethylpiperazin-1-yl)methyl)-5-(trifluoromethyl)phenyl)isoindoline-2-carboxamide] | > 10
19 | O=C(Nc1nc2ccc(Oc3ccc4c(c3)CN(C(=O)Nc3ccc(F)cc3F)C4)nc2s1)C1CC1 [Compound I-23, 5-((2-(cyclopropanecarboxamido)thiazolo[5,4-b]pyridin-5-yl)oxy)-N-(2,4-difluorophenyl)isoindoline-2-carboxamide] | > 10
20 | O=C(Nc1nc2ccc(Oc3ccc4nc(Nc5ccc(F)cc5F)[nH]c4c3)nc2s1)C1CC1 [Compound I-24, N-(5-((2-((2,4-difluorophenyl)amino)-1H-benzo[d]imidazol-6-yl)oxy)thiazolo[5,4-b]pyridin-2-yl)cyclopropanecarboxamide] | > 10
21 | CCN1CCN(Cc2ccc(Nc3nc4ccc(Oc5ccc6nc(NC(=O)C7CC7)sc6n5)cc4[nH]3)cc2C(F)(F)F)CC1 [Compound I-25, N-(5-((2-((4-((4-ethylpiperazin-1-yl)methyl)-3-(trifluoromethyl)phenyl)amino)-1H-benzo[d]imidazol-6-yl)oxy)thiazolo[5,4-b]pyridin-2-yl)cyclopropanecarboxamide] | 0.63

From patent US12415816B2, “Benzothiazole derivatives and 7-aza-benzothiazole derivatives as janus kinase 2 inhibitors and uses thereof” (Dana-Farber Cancer Institute, Inc., priority 2018, dated 2025)
